Laboratory results as given in patent US8796256B2 (Janssen Pharmaceutica NV, priority 2010, dated 2014).

The compounds below were run against T1, ERR1 (also known as ERR-α or ERR-1) (Homo sapiens, UniProt P11474) (assay: TR-FRET assay (disruption of co-activator peptide binding to ERR1 LBD)). Settings: 6 nM 6His-ERR1LBD, 6 nM GST-SRC-2 peptide; average of 3 independent experiments.
T1 sequence (P11474 193-421 limits assumed): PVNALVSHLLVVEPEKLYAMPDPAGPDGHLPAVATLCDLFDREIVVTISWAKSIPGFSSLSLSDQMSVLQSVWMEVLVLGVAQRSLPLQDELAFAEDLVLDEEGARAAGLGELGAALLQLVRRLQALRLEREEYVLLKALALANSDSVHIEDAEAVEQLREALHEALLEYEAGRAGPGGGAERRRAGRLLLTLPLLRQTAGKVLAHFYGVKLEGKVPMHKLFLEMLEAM
Type: biochemical
Procedure, shortened: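 His-tagged ERR1 ligand-binding domain and GST-labelled SRC-2 peptide, each 6 nM, equilibrated at 25° C for 4-18 h in Tris pH 8/Hepes/KCl/DTT/delipidated BSA buffer. Compound-induced loss of co-activator binding read as Eu cryptate→XL665 energy transfer; values from hyperbolic curve fits averaged over 3 independent runs.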

Row | EC50 [nM] | SMILES
1 | 19 | CN1C[C@H](O)C[C@H]1CN1C(=O)S/C(=C\c2ccc3c(cnn3Cc3ccc(Cl)cc3C(F)(F)F)c2)C1=O [Compound 191, (5Z)-5-({1-[4-Chloro-2-(trifluoromethyl)benzyl]-1H-indazol-5-yl}methylidene)-3-{[(2S,4R)-4-hydroxy-1-methylpyrrolidin-2-yl]methyl}-1,3-thiazolidine-2,4-dione]
2 | 27 | CC[C@@H](CN1C(=O)S/C(=C\c2ccc3c(cnn3Cc3ccc(Cl)cc3C(F)(F)F)c2)C1=O)NS(C)(=O)=O [Compound 156, N-[(1S)-1-{[(5Z)-5-({1-[4-Chloro-2-(trifluoromethyl)benzyl]-1H-indazol-5-yl}methylidene)-2,4-dioxo-1,3-thiazolidin-3-yl]methyl}propyl] methanesulfonamide]
3 | > 10000 | O=C1S/C(=C\c2ccc3c(cnn3Cc3ccc(Cl)cc3C(F)(F)F)c2)C(=O)N1CC1COS(=O)(=O)N1 (centres unmarked) [Compound 409, (5Z)-5-({1-[4-Chloro-2-(trifluoromethyl)benzyl]-1H-indazol-5-yl}methylidene)-3-[(2,2-dioxido-1,2,3-oxathiazolidin-4-yl)methyl]-1,3-thiazolidine-2,4-dione]
4 | 9 | CS(=O)(=O)NN1C(=O)S/C(=C\c2cc3cnn(Cc4ccc(Cl)cc4C(F)(F)F)c3cc2F)C1=O [Compound 371, N-[(5Z)-5-({1-[4-Chloro-2-(trifluoromethyl)benzyl]-6-fluoro-1H-indazol-5-yl}methylidene)-2,4-dioxo-1,3-thiazolidin-3-yl]methanesulfonamide]
5 | 122 | CN(CCN1C(=O)S/C(=C\c2ccc3c(cnn3Cc3ccc(Cl)cc3C(F)(F)F)c2)C1=O)C(=O)C(F)(F)F [Compound 394, N-{2-[(5Z)-5-({1-[4-Chloro-2-(trifluoromethyl)benzyl]-1H-indazol-5-yl}methylidene)-2,4-dioxo-1,3-thiazolidin-3-yl]ethyl}-2,2,2-trifluoro-N-methylacetamide]
6 | 580 | O=C1S/C(=C\c2ccc3c(cnn3Cc3ccc(C(F)(F)F)cc3C(F)(F)F)c2)C(=O)N1CCN1CCCC1 [Compound 84, (5Z)-5-({1-[2,4-Bis(trifluoromethyl)benzyl]-1H-indazol-5-yl}methylidene)-3-(2-pyrrolidin-1-ylethyl)-1,3-thiazolidine-2,4-dione]
7 | 76 | O=C(O)C(Cc1c[nH]cn1)N1C(=O)S/C(=C\c2ccc3c(cnn3Cc3ccc(Cl)cc3C(F)(F)F)c2)C1=O (centres unmarked) [Compound 229, 2-[(5Z)-5-({1-[4-Chloro-2-(trifluoromethyl)benzyl]-1H-indazol-5-yl}methylidene)-2,4-dioxo-1,3-thiazolidin-3-yl]-3-(1H-imidazol-4-yl)propanoic acid]
8 | 48 | O=C(O)C1CC(N2C(=O)S/C(=C\c3ccc4c(cnn4Cc4ccc(C(F)(F)F)cc4C(F)(F)F)c3)C2=O)C1 (centres unmarked) [Compound 70, 3-[(5Z)-5-({1-[2,4-Bis(trifluoromethyl)benzyl]-1H-indazol-5-yl}methylidene)-2,4-dioxo-1,3-thiazolidin-3-yl]cyclobutanecarboxylic acid]
9 | 28 | COC(=O)C1(N2C(=O)S/C(=C\c3ccc4c(cnn4Cc4ccc(Cl)cc4C(F)(F)F)c3)C2=O)CCN(C)CC1 [Compound 213, Methyl 4-[(5Z)-5-({1-[4-chloro-2-(trifluoromethyl)benzyl]-1H-indazol-5-yl}methylidene)-2,4-dioxo-1,3-thiazolidin-3-yl]-1-methylpiperidine-4-carboxylate]
10 | 35 | CN(C)C[C@H](O)CN1C(=O)S/C(=C\c2ccc3c(cnn3Cc3ccc(Cl)cc3C(F)(F)F)c2)C1=O [Compound 293, (5Z)-5-({1-[4-Chloro-2-(trifluoromethyl)benzyl]-1H-indazol-5-yl}methylidene)-3-[(2S)-3-(dimethylamino)-2-hydroxypropyl]-1,3-thiazolidine-2,4-dione]
11 | 32 | CN1CCCC1CCN1C(=O)S/C(=C\c2ccc3c(cnn3Cc3ccc(Cl)cc3C(F)(F)F)c2)C1=O (centres unmarked) [Compound 140, (5Z)-5-({1-[4-Chloro-2-(trifluoromethyl)benzyl]-1H-indazol-5-yl}methylidene)-3-[2-(1-methylpyrrolidin-2-yl)ethyl]-1,3-thiazolidine-2,4-dione]
12 | 32 | NC(CN1C(=O)S/C(=C\c2ccc3c(cnn3Cc3ccc(Cl)cc3C(F)(F)F)c2)C1=O)C(F)(F)F (centres unmarked) [Compound 169, (5Z)-3-(2-Amino-3,3,3-trifluoropropyl)-5-({1-[4-chloro-2-(trifluoromethyl)benzyl]-1H-indazol-5-yl}methylidene)-1,3-thiazolidine-2,4-dione]
13 | 130 | O=C1S/C(=C\c2ccc3c(cnn3Cc3ccc(Cl)cc3C(F)(F)F)c2)C(=O)N1CCN1CC[C@H](O)C1 [Compound 1]
14 | 61 | O=C(O)[C@H](CO)N1C(=O)S/C(=C\c2ccc3c(cnn3Cc3ccc(Cl)cc3C(F)(F)F)c2)C1=O [Compound 221, (2S)-2-[(5Z)-5-({1-[4-Chloro-2-(trifluoromethyl)benzyl]-1H-indazol-5-yl}methylidene)-2,4-dioxo-1,3-thiazolidin-3-yl]-3-hydroxypropanoic acid]
15 | 4 | CS(=O)(=O)NN1C(=O)S/C(=C\c2ccc3c(c2)c(I)nn3Cc2ccc(Cl)cc2C(F)(F)F)C1=O [Compound 367, N-[(5Z)-5-({1-[4-Chloro-2-(trifluoromethyl)benzyl]-3-iodo-1H-indazol-5-yl}methylidene)-2,4-dioxo-1,3-thiazolidin-3-yl]methanesulfonamide]
16 | 57 | O=C1S/C(=C\c2ccc3c(cnn3Cc3ccc(Cl)cc3C(F)(F)F)c2)C(=O)N1C1(C(=O)O)CCCC1 [Compound 233, 1-[(5Z)-5-({1-[4-Chloro-2-(trifluoromethyl)benzyl]-1H-indazol-5-yl}methylidene)-2,4-dioxo-1,3-thiazolidin-3-yl]cyclopentanecarboxylic acid]
17 | 66 | O=C1S/C(=C\c2ccc3c(cnn3Cc3ccc(Cl)cc3C(F)(F)F)c2)C(=O)N1C[C@H](O)CNCCF [Compound 295, (5Z)-5-({1-[4-Chloro-2-(trifluoromethyl)benzyl]-1H-indazol-5-yl}methylidene)-3-{(2R)-3-[(2-fluoroethyl)amino]-2-hydroxypropyl}-1,3-thiazolidine-2,4-dione]
18 | 15 | COc1ccc(Cn2ncc3cc(/C=C4\SC(=O)N(C5CCN(S(N)(=O)=O)CC5)C4=O)ccc32)c(C(F)(F)F)c1 [Compound 32, 4-[(5Z)-5-({1-[4-Methoxy-2-(trifluoromethyl)benzyl]-1H-indazol-5-yl}methylidene)-2,4-dioxo-1,3-thiazolidin-3-yl]piperidine-1-sulfonamide]
19 | 29 | COC[C@@H](N)CN1C(=O)S/C(=C\c2ccc3c(cnn3Cc3ccc(Cl)cc3C(F)(F)F)c2)C1=O [Compound 168, (5Z)-3-[(2S)-2-Amino-3-methoxypropyl]-5-({1-[4-chloro-2-(trifluoromethyl)benzyl]-1H-indazol-5-yl}methylidene)-1,3-thiazolidine-2,4-dione]
20 | 21 | O=C1S/C(=C\c2ccc3c(cnn3Cc3ccc(Cl)cc3C(F)(F)F)c2)C(=O)N1[C@@H]1CCN(CCO)C[C@H]1F (relative stereo) [Compound 327, (5Z)-5-({1-[4-Chloro-2-(trifluoromethyl)benzyl]-1H-indazol-5-yl}methylidene)-3-[trans-3-fluoro-1-(2-hydroxyethyl)piperidin-4-yl]-1,3-thiazolidine-2,4-dione]
21 | 438 | O=C1S/C(=C\c2ccc3c(cnn3Cc3ccc(Cl)cc3C(F)(F)F)c2)C(=O)N1CCNc1ccc([N+](=O)[O-])cn1 [Compound 110, (5Z)-5-({1-[4-Chloro-2-(trifluoromethyl)benzyl]-1H-indazol-5-yl}methylidene)-3-{2-[(5-nitropyridin-2-yl)amino]ethyl}-1,3-thiazolidine-2,4-dione]
22 | 35 | CN1CCCC(N2C(=O)S/C(=C\c3ccc4c(cnn4Cc4ccc(Cl)cc4C(F)(F)F)c3)C2=O)C1 (centres unmarked) [Compound 136, (5Z)-5-({1-[4-Chloro-2-(trifluoromethyl)benzyl]-1H-indazol-5-yl}methylidene)-3-(1-methylpiperidin-3-yl)-1,3-thiazolidine-2,4-dione]
23 | 41 | COC(=O)C(Cc1cccnc1)N1C(=O)S/C(=C\c2ccc3c(cnn3Cc3ccc(Cl)cc3C(F)(F)F)c2)C1=O (centres unmarked) [Compound 217, Methyl 2-[(5Z)-5-({1-[4-chloro-2-(trifluoromethyl)benzyl]-1H-indazol-5-yl}methylidene)-2,4-dioxo-1,3-thiazilidin-3-yl]-3-pyridin-3-ylpropanoate]
24 | 49 | NC(=O)CN1CCC[C@@H]1CN1C(=O)S/C(=C\c2ccc3c(cnn3Cc3ccc(Cl)cc3C(F)(F)F)c2)C1=O [Compound 298, 2-[(2R)-2-{[(5Z)-5-({1-[4-Chloro-2-(trifluoromethyl)benzyl]-1H-indazol-5-yl}methylidene)-2,4-dioxo-1,3-thiazolidin-3-yl]methyl}pyrrolidin-1-yl]acetamide]
25 | 14 | NC1CCCC(N2C(=O)S/C(=C\c3ccc4c(cnn4Cc4ccc(Cl)cc4C(F)(F)F)c3)C2=O)C1 (centres unmarked) [Compound 76, (5Z)-3-(3-Aminocyclohexyl)-5-({1-[4-chloro-2-(trifluoromethyl)benzyl]-1H-indazol-5-yl}methylidene)-1,3-thiazolidine-2,4-dione]

Row | SMILES | EC50 [nM]
26 | O=C1S/C(=C\c2ccc3c(cnn3Cc3ccc(Cl)cc3C(F)(F)F)c2)C(=O)N1C1CN2CCC1CC2 (centres unmarked) [Compound 112, (5Z)-3-(1-Azabicyclo[2.2.2]oct-3-yl)-5-({1-[4-chloro-2-(trifluoromethyl)benzyl]-1H-indazol-5-yl}methylidene)-1,3-thiazolidine-2,4-dione] | 22
